From publication PMC10536928, “Discovery of New Pyrrolo[2,3-d]pyrimidine Derivatives as Potential Multi-Targeted Kinase Inhibitors and Apoptosis Inducers” (Pharmaceuticals, 2023) come the findings set out here.

Holding throughout (type): cell-based
One experiment deals with HepG2 cells. Kind of experiment: Cell cycle analysis (propidium iodide flow cytometry). From the text:
The objective of the study was to evaluate the influence of the synthesized compounds on the progression of the cell cycle in HepG2 cells.
The observed modifications in cell cycle distribution following drug treatment indicate a potential mechanism of action involving cell cycle arrest, a commonly employed therapeutic strategy for suppressing cancer cell proliferation. By impeding cells in the G0–G1 phase, drugs can effectively prevent them from proceeding to the S phase, where DNA replication takes place, and ultimately lead to cell death. […] The cell cycle distribution index (CDI) is a metric that quantifies the rate of cell proliferation and can be derived from the percentage of cells in each phase of the cell cycle. The CDI was calculated using the formula: CDI = (G2/M + S)/[…], wherein G0/G1, S, and G2/M denote the percentages of cells in the respective phases of the cell cycle. The CDI values for the control and compound 5k were determined to be 1.35 and 1.03, respectively.
To investigate the impact of the synthesized compound 5k on cell cycle progression, the ab139418 Propidium Iodide flow cytometry kit/BD was utilized. Initially, HepG2 cells were seeded in triplicate at a density of 2 × 10^5 cells per well in 6-well plates and incubated for 24 h. […] Following treatment, the HepG2 cells were fixed with 70% ethanol and incubated for 12 h at 4 °C. Subsequently, the wells were washed with cold PBS, treated with RNase A (100 µL) at 37 °C for 30 min, and stained with Propidium Iodide (400 µL) in a dark environment at room temperature for another 30 min. The labeled cells were then analyzed using the Epics XLMCL™ flow cytometer equipment (Beckman Coulter, Apeldoorn, the Netherlands). Finally, the experimental results were analyzed using Turku Centre for Biotechnology software version 2.5.1 (Turku, Finland).

For experiment [1], the system named is four different cancer cell lines (MCF-7, HepG2, MDA-MB-231, HeLa). As to the kind of experiment: MTT cytotoxicity assay, range over the four cell lines. The note with it: read-out: IC50 values, range over the tested cancer cell lines. As to the method: (§1) The cytotoxic effects of compounds 5a–m were evaluated using a standard MTT method against four different cancer cell lines, namely mammary gland cancer (MCF-7), hepatocellular carcinoma (HepG2), breast cancer (MDA-MB-231), and epithelioid cervix carcinoma (HeLa). […] These findings highlight the potential of these compounds as candidates for further development as cytotoxic agents for cancer treatment.
(§2) The cytotoxicity of compounds 5a–m was assessed against various cancer cell lines and one normal cell line using the described methodology. In brief, the cells were cultured in 96-well plates with a density of 1.0 × 10^4 cells per well, supplemented with 10% fetal bovine serum (FBS), an antibiotic cocktail, and RPMI 11,640 medium. The cells were then incubated for 48 h with 5% CO2 and 100% relative humidity at 37 °C. […] Following treatment, the addition of 20 µL of MTT solution was added to each well and incubation was continued for another 4 h, after which dimethyl sulfoxide (100 µL) was used to dissolve the resulting insoluble formazan. The absorbance was measured at 570 nm using a BioTek EXL 800 plate reader (Agilent Technologies, CA, USA). By comparing the absorbance of treated samples to untreated samples, the relative cell viability percentage was calculated as (A570 of treated samples/A570 of untreated sample) × 100. The IC50 values were determined based on triplicate measurements.
A general note: Formazan colour is commonly taken as a measure of viable cells.

For experiment [2], the system named is mammary gland cancer (MCF-7). Kind of experiment: MTT cytotoxicity assay. The note with it: 24 h exposure, mean ± SD of triplicate. How it is done:
as §1, §2

The test system of experiment [3] is hepatocellular carcinoma (HepG2). As to the kind of experiment: MTT cytotoxicity assay. The note with it: Homo sapiens, 24 h exposure, mean ± SD of triplicate. As to the method:
as §1, §2

The subject of experiment [4] is breast cancer (MDA-MB-231). Kind of experiment: MTT cytotoxicity assay. The conditions noted are these: Homo sapiens, 24 h exposure, mean ± SD of triplicate. As to the method:
as §1, §2

Molecules are shown by their SMILES.

Regarding `O=C(N/N=C/c1ccc(Cl)c(Cl)c1)c1ccc(Nc2ncnc3[nH]ccc23)cc1` [Compound 5k, (E)-4-((7H-Pyrrolo[2,3-d]pyrimidin-4-yl)amino)-N’-(3,4-dichlorobenzylidene)benzohydrazide], the “Cell Cycle Distribution Index (CDI)” value in the experiment on HepG2 cells (CDI = (G2/M + S)/G0/G1, control 1.35) is recorded as 1.03. For the same compound, in the experiment with HepG2 cells (compound at its IC50, 24 h, control 19.38), the “DNA Content (%) %G2/M” value was determined as 18.3%. The “DNA Content (%) %S” value in the experiment on HepG2 cells (compound at its IC50, 24 h, control 36.76) is listed as 32.52%. In addition, the “DNA Content (%) %G0–G1” value in the experiment on HepG2 cells (compound at its IC50, 24 h, control 43.86) stood at 49.18%. For the same compound, the concentration for half-maximal inhibition (IC50) (as a rule, the concentration that gives 50% inhibition) was 29 to 59 µM in experiment [1]; 59.1 ± 3.5 µM in experiment [2]; 60 µM in experiment [2] (Homo sapiens, MCF7, 24 h); 41.5 ± 2.6 µM in experiment [3]; 51.4 ± 2.8 µM in experiment [4].
